# Source: patent publication US20110243958A1, “ANTIMICROBIAL AGENTS THAT TARGET BACTERIAL VKOR” (priority 2008, published 2011)
# “Also recorded” adds a separate entry of the source.
# Assays:
# M. smegmatis = experiment: microbe, parasite or virus in culture; format: cell-based, Mycobacterium smegmatis; details: for growth of M. smegmatis culture: addition to culture
# [1] = target: T1, M. tuberculosis VKOR (MtbVKOR) (Mycobacterium tuberculosis, UniProt I6X5W1); format: cell-based
# T1 sequence (I6X5W1 1-210): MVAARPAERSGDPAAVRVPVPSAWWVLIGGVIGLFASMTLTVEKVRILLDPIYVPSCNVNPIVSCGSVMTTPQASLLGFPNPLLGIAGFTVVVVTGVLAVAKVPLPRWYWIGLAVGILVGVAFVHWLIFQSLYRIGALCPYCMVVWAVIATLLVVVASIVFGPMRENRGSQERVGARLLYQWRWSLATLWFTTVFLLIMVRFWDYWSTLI
# [2] = target: T1, M. tuberculosis VKOR (MtbVKOR); format: cell-based; remark: listed apart in the source
# [3] = test system: some species of mycobacteria; details: cited from earlier work
# [4] = in animals; cited from earlier work
SMILES,growth of M. smegmatis culture (M. smegmatis),activity of β-galactosidase (increase indicates inhibition of disulfide bond formation) [1],disulfide bond formation / VKOR activity [2],levels necessary to inhibit VKOR activity in E. coli [2],levels necessary to inhibit growth in Msmeg (M. smegmatis),"MIC (M. smegmatis; Mycolicibacterium smegmatis, M. smegmatis grown in Middlebrook 7H9 medium (defined medium), alamar blue assay, read-out: minimal inhibitory concentration)",growth of mycobacteria [3],anti-coagulant properties [4]
CC(=O)CC(c1ccccc1)c1c(O)c2ccccc2oc1=O (stereo not drawn) [sodium warfarin],inhibits growth,,,,,,,
CC(=O)CC(c1ccccc1)c1c(O)c2ccccc2oc1=O (stereo not drawn) [warfarin],caused inhibition of growth,significantly increased,inhibit the tuberculosis VKOR activity; also recorded: inhibit disulfide bond formation,high (millimolar concs.),high (millimolar concs.),4.5 mM,,
CC(C)=CCC/C(C)=C/CC/C(C)=C/Cc1c(O)c2ccccc2oc1=O [ferulenol],,,,,,,inhibit the growth,has anti-coagulant properties
